Several values for one entry are separate records, joined by “and”; a condition that tells them apart may be missing. Equal values may be shown once.
Legend:
[1] = system: adjuvant induced arthritis; experiment: adjuvant induced arthritis test in the rat (primary and secondary lesions); type: in vivo, rat (Royal Hart, Wistar strain)
Description: (§1) Groups of three Royal Hart, Wistar strain rats, weighing 200±10 g. each were injected intradermally in the right hind paw with Freund's adjuvant (dried human tubercle bacilli in a mineral oil vehicle) at a dose of 2 mg./kg. of body weight. Test compositions were administered orally in a 1.5% starch vehicle at various doses once daily on days 0 through 13 post challenge. Control rats were treated in a similar manner, but given only starch vehicle. On the 14th, 21st, 28th and 35th days post challenge the diameter of the injected paw (primary lesion) was measured by micrometer caliper. The volume of inflamed paws were estimated from these measurements and the results are expressed as percent inhibition of swelling as compared to controls. At the same time, the other inflamed sites, such as ears, paws and tail (secondary lesions) were observed and each rat was graded as to degree of inflammation and swelling present. The grading is based on a scale of 0 to 24, where 0 represents a complete absence of induced arthritic modules and 24 represents the maximum degree of inflammation. The mean grade for each treated group is calculated and the effects of each test compound are expressed as percent inhibition of the control grade. The following Tables I-V record the results of tests conducted with the compositions of this invention and conventional anti-inflammatory agents both separately and in combination. All tests were replicated several times. Each treatment group represents a total of 18 rats. Each challenged control group comprised 36 rats and each unchallenged control group was 9 rats.

[2] = body weight gain in the adjuvant induced arthritis test in the rat; type: in vivo, rat (Royal Hart, Wistar strain)
Description: as §1

arthritic paw swelling = details: S. Wong et al. 1973; G. R. Bobalick et al. 1974; cited from earlier work
[3] = oral 5 mg/kg once daily, day 14
[4] = oral 5 mg/kg once daily, day 21
[5] = oral 5 mg/kg once daily, day 28
[6] = oral 5 mg/kg once daily, day 35
[7] = oral 10 mg/kg once daily, day 14
[8] = oral 10 mg/kg once daily, day 21
[9] = oral 10 mg/kg once daily, day 28
[10] = oral 10 mg/kg once daily, day 35
[11] = oral 0.25 mg/kg once daily, day 14, 0.25 mg/kg
[12] = oral 0.5 mg/kg once daily, day 14, 0.5 mg/kg
[13] = oral 0.5 mg/kg once daily, day 21, 0.5 mg/kg
[14] = oral 1.0 mg/kg once daily, day 14, 1 mg/kg
[15] = oral 1.0 mg/kg once daily, day 21, 1 mg/kg
[16] = oral 25 mg/kg once daily, day 14
[17] = oral 25 mg/kg once daily, day 21
[18] = oral 25 mg/kg once daily, day 28
[19] = oral 25 mg/kg once daily, day 35
[20] = oral 50 mg/kg once daily, day 14
[21] = oral 50 mg/kg once daily, day 21
[22] = oral 50 mg/kg once daily, day 28
[23] = oral 50 mg/kg once daily, day 35
[24] = oral 100 mg/kg once daily, day 21, 100 mg/kg
[25] = oral 100 mg/kg once daily, day 14
[26] = oral 100 mg/kg once daily, day 21
[27] = oral 12.5 mg/kg once daily, day 14, 12.5 mg/kg
[28] = oral 12.5 mg/kg once daily, day 21, 12.5 mg/kg
[29] = oral 12.5 mg/kg once daily, day 28
[30] = oral 12.5 mg/kg once daily, day 35, 12.5 mg/kg
[31] = oral 25 mg/kg once daily, day 14, 25 mg/kg
[32] = oral 25 mg/kg once daily, day 21, 25 mg/kg
[33] = oral 25 mg/kg once daily, day 28, 25 mg/kg
[34] = oral 25 mg/kg once daily, day 35, 25 mg/kg

SMILES: C[C@]12C=CC(=O)C=C1CC[C@@H]1[C@@H]2[C@@H](O)C[C@@]2(C)[C@H]1CC[C@]2(O)C(=O)CO [Prednisolone, reference compound]
- Primary Lesions (% Inhibition) [1, 3]: 63%
- Secondary Lesions (% Inhibition) [1, 3]: 45%
- Primary Lesions (% Inhibition) [1, 4]: 24%
- Secondary Lesions (% Inhibition) [1, 4]: 16%
- Primary Lesions (% Inhibition) [1, 5]: 17%
- Secondary Lesions (% Inhibition) [1, 5]: 5%
- Primary Lesions (% Inhibition) [1, 6]: 11%
- Secondary Lesions (% Inhibition) [1, 6]: 20%
- Primary Lesions (% Inhibition) [1, 7]: 57%
- Secondary Lesions (% Inhibition) [1, 7]: 55%
- Primary Lesions (% Inhibition) [1, 8]: 24%
- Secondary Lesions (% Inhibition) [1, 8]: 21%
- Primary Lesions (% Inhibition) [1, 9]: 14%
- Secondary Lesions (% Inhibition) [1, 9]: 3%
- Primary Lesions (% Inhibition) [1, 10]: 13%
- Secondary Lesions (% Inhibition) [1, 10]: 17%
- Body Weight Gain in Grams [2, 3]: 22 Grams
- Body Weight Gain in Grams [2, 4]: 26 Grams
- Body Weight Gain in Grams [2, 5]: 44 Grams
- Body Weight Gain in Grams [2, 6]: 71 Grams
- Body Weight Gain in Grams [2, 7]: 23 Grams
- Body Weight Gain in Grams [2, 8]: 47 Grams
- Body Weight Gain in Grams [2, 9]: 75 Grams
- Body Weight Gain in Grams [2, 10]: 95 Grams

SMILES: COc1ccc2c(c1)c(CC(=O)O)c(C)n2C(=O)c1ccc(Cl)cc1 [Indomethacin, 1-(4-chlorobenzoyl)-5-methoxy-2-methyl-1H-indole-3-acetic acid, reference compound]
- Primary Lesions (% Inhibition) [1, 11]: 29% and 44%
- Secondary Lesions (% Inhibition) [1, 11]: 22% and 25%
- Primary Lesions (% Inhibition) [1, 12]: 50% and 41%
- Primary Lesions (% Inhibition) ([1]; oral 0.5 mg/kg once daily, day 21): 8%
- Secondary Lesions (% Inhibition) [1, 13]: 10% and 3%
- Primary Lesions (% Inhibition) [1, 14]: 63% and 57%
- Secondary Lesions (% Inhibition) [1, 14]: 54% and 48%
- Primary Lesions (% Inhibition) [1, 15]: 27% and 24%
- Secondary Lesions (% Inhibition) [1, 15]: 30% and 27%
- Body Weight Gain in Grams [2, 11]: 59 Grams and 43 Grams
- Body Weight Gain in Grams ([2]; oral 0.25 mg/kg once daily, day 21, 0.25 mg/kg): 45 Grams and 46 Grams
- Body Weight Gain in Grams [2, 12]: 71 Grams and 61 Grams
- Body Weight Gain in Grams [2, 13]: 57 Grams and 51 Grams
- Body Weight Gain in Grams [2, 14]: 92 Grams and 76 Grams
- Body Weight Gain in Grams [2, 15]: 84 Grams and 70 Grams
- arthritic paw swelling (arthritic paw swelling): inhibit arthritic paw swelling
- joint and bone deterioration (arthritic paw swelling): prevent joint and bone deterioration

SMILES: N#CCC(=O)c1ccc(F)cc1 [(p-Fluorobenzoyl)-acetonitrile]
- Primary Lesions (% Inhibition) [1, 16]: 30%
- Secondary Lesions (% Inhibition) [1, 16]: 23%
- Primary Lesions (% Inhibition) [1, 17]: 17%
- Secondary Lesions (% Inhibition) [1, 17]: 0%
- Primary Lesions (% Inhibition) [1, 18]: 0%
- Secondary Lesions (% Inhibition) [1, 18]: 0%
- Primary Lesions (% Inhibition) [1, 19]: 6%
- Secondary Lesions (% Inhibition) [1, 19]: 7%
- Primary Lesions (% Inhibition) [1, 20]: 53%
- Secondary Lesions (% Inhibition) [1, 20]: 34%
- Primary Lesions (% Inhibition) [1, 21]: 32%
- Secondary Lesions (% Inhibition) [1, 21]: 10%
- Primary Lesions (% Inhibition) [1, 22]: 27%
- Secondary Lesions (% Inhibition) [1, 22]: 28%
- Primary Lesions (% Inhibition) [1, 23]: 22%
- Secondary Lesions (% Inhibition) [1, 23]: 19%
- Body Weight Gain in Grams [2, 16]: 71 Grams
- Body Weight Gain in Grams [2, 17]: 65 Grams
- Body Weight Gain in Grams [2, 18]: 80 Grams
- Body Weight Gain in Grams [2, 19]: 111 Grams
- Body Weight Gain in Grams [2, 20]: 75 Grams
- Body Weight Gain in Grams [2, 21]: 77 Grams
- Body Weight Gain in Grams [2, 22]: 93 Grams
- Body Weight Gain in Grams [2, 23]: 125 Grams

SMILES: CC(=O)Oc1ccccc1C(=O)O [Aspirin, 2-(acetyloxy)benzoic acid, reference compound]
- Primary Lesions (% Inhibition) ([1]; oral 50 mg/kg once daily, day 14, 50 mg/kg): 21% and 16%
- Secondary Lesions (% Inhibition) ([1]; oral 50 mg/kg once daily, day 21, 50 mg/kg): 12% and 10%
- Secondary Lesions (% Inhibition) ([1]; oral 50 mg/kg once daily, day 28, 50 mg/kg): 31% and 20%
- Primary Lesions (% Inhibition) [1, 23]: 0%
- Primary Lesions (% Inhibition) [1, 24]: 8% and 2%
- Primary Lesions (% Inhibition) ([1]; oral 100 mg/kg once daily, day 35, 100 mg/kg): 5% and 1%
- Body Weight Gain in Grams ([2]; oral 100 mg/kg once daily, day 14, 100 mg/kg): 45 Grams and 47 Grams
- Body Weight Gain in Grams [2, 24]: 42 Grams and 46 Grams
- Body Weight Gain in Grams ([2]; oral 100 mg/kg once daily, day 28, 100 mg/kg): 44 Grams and 57 Grams

SMILES: N#CC=C(N)c1cccs1 [β-Amino-2-thiopheneacrylonitrile]
- Primary Lesions (% Inhibition) [1, 20]: 16%
- Secondary Lesions (% Inhibition) [1, 20]: 13%
- Primary Lesions (% Inhibition) [1, 21]: 14%
- Secondary Lesions (% Inhibition) [1, 21]: 0%
- Primary Lesions (% Inhibition) [1, 22]: 6%
- Secondary Lesions (% Inhibition) [1, 22]: 4%
- Primary Lesions (% Inhibition) [1, 23]: 1%
- Secondary Lesions (% Inhibition) [1, 23]: 11%
- Body Weight Gain in Grams [2, 20]: 63 Grams
- Body Weight Gain in Grams [2, 21]: 66 Grams
- Body Weight Gain in Grams [2, 22]: 76 Grams
- Body Weight Gain in Grams [2, 23]: 108 Grams

SMILES: N#CCC(=N)c1ccccc1 [Benzimidoylacetonitrile]
- Primary Lesions (% Inhibition) [1, 16]: 56%
- Secondary Lesions (% Inhibition) [1, 16]: 63%
- Primary Lesions (% Inhibition) [1, 17]: 33%
- Secondary Lesions (% Inhibition) [1, 17]: 24%
- Primary Lesions (% Inhibition) [1, 20]: 68%
- Secondary Lesions (% Inhibition) [1, 20]: 70%
- Primary Lesions (% Inhibition) [1, 21]: 58%
- Secondary Lesions (% Inhibition) [1, 21]: 43%
- Primary Lesions (% Inhibition) [1, 25]: 68%
- Secondary Lesions (% Inhibition) [1, 25]: 75%
- Primary Lesions (% Inhibition) [1, 26]: 55%
- Secondary Lesions (% Inhibition) [1, 26]: 34%
- Body Weight Gain in Grams [2, 16]: 72 Grams
- Body Weight Gain in Grams [2, 17]: 66 Grams
- Body Weight Gain in Grams [2, 20]: 77 Grams
- Body Weight Gain in Grams [2, 21]: 80 Grams
- Body Weight Gain in Grams [2, 25]: 70 Grams
- Body Weight Gain in Grams [2, 26]: 88 Grams

SMILES: N#CCC(=O)c1ccccc1 [Benzoylacetonitrile]
- Primary Lesions (% Inhibition) [1, 27]: 44% and 49%
- Secondary Lesions (% Inhibition) [1, 27]: 45% and 59%
- Primary Lesions (% Inhibition) [1, 28]: 16% and 32%
- Secondary Lesions (% Inhibition) [1, 29]: 25%
- Secondary Lesions (% Inhibition) [1, 30]: 22% and 26%
- Primary Lesions (% Inhibition) [1, 31]: 60% and 62% and 36%
- Secondary Lesions (% Inhibition) [1, 31]: 70% and 62% and 50%
- Primary Lesions (% Inhibition) [1, 32]: 36% and 38% and 24%
- Secondary Lesions (% Inhibition) [1, 33]: 20% and 19%
- Secondary Lesions (% Inhibition) [1, 34]: 38% and 20%
- Primary Lesions (% Inhibition) [1, 20]: 60%
- Secondary Lesions (% Inhibition) [1, 20]: 66%
- Primary Lesions (% Inhibition) [1, 21]: 45%
- Secondary Lesions (% Inhibition) [1, 21]: 43%
- Primary Lesions (% Inhibition) [1, 25]: 55%
- Secondary Lesions (% Inhibition) [1, 25]: 76%
- Primary Lesions (% Inhibition) [1, 26]: 54%
- Secondary Lesions (% Inhibition) [1, 26]: 56%
- Body Weight Gain in Grams [2, 27]: 57 Grams and 49 Grams
- Body Weight Gain in Grams [2, 28]: 53 Grams and 38 Grams
- Body Weight Gain in Grams [2, 29]: 55 Grams
- Body Weight Gain in Grams [2, 30]: 81 Grams and 68 Grams
- Body Weight Gain in Grams [2, 31]: 52 Grams and 47 Grams and 57 Grams
- Body Weight Gain in Grams [2, 32]: 52 Grams and 47 Grams and 57 Grams
- Body Weight Gain in Grams [2, 33]: 75 Grams and 51 Grams
- Body Weight Gain in Grams [2, 34]: 86 Grams and 69 Grams
- Body Weight Gain in Grams [2, 20]: 58 Grams
- Body Weight Gain in Grams [2, 21]: 62 Grams
- Body Weight Gain in Grams [2, 25]: 56 Grams
- Body Weight Gain in Grams [2, 26]: 79 Grams

Reference: patent US4325949A, “Combinations of agents which give enhanced anti-inflammatory activity” (American Cyanamid Company, priority 1980, dated 1982)
